Holding throughout (type): cell-based
The test system of data set [1] is H1299_eGFP cells. Description: Cell viability following CAD incubation (CellTiter GLO). Particulars: for concentration with significant additional cytotoxicity compared to siNGs alone: human, 20 h. As to the method:
The silencing potential of siPLK1-NGs was established through evaluating the cell viability. Hereto, we applied the CellTiter GLO® assay (Promega, Belgium) according to the manufacturer's guidelines. Before initiating the assay, the culture plates and reconstituted assay buffer were placed at room temperature for 30 minutes. Next, the culture medium was replaced by 250 μL fresh cell medium and an equal volume of assay buffer was added. To induce complete cell lysis, the plates were shaken during 2 minutes and the signal was allowed to stabilize the following 10 minutes. 100 μL from each well was subsequently transferred to an opaque 96-well plate, which was measured with a GloMax® 96 Microplate Luminometer (Promega, Belgium). Three biological replicates were performed and data are expressed as the mean cell viability±SEM.
Please note that we only applied siCTRL-loaded NGs in this set of experiments. With the interest of evaluating the possible effect of our treatment on cell viability, the CellTiter GLO® assay was performed as described above. Again, three biological replicates were performed and data are expressed as the mean±SEM.
In general terms: Cellular ATP, detected with luciferase, serves as a proxy for viable cell number.

The test system of data set [2] is H1299_eGFP cells. Briefly: siNG transfection and sequential adjuvant treatment, eGFP silencing by flow cytometry. Particulars: for adjuvant effect on siNG-mediated eGFP silencing: sequential treatment 10, 20 or 40 μM, 20 h, siNGs 2 nM siRNA; for cellular siRNA delivery promoting effect: β2 agonists, 10, 20, 40 μM, 20 h after siNGs. (Flow cytometry measures light scatter and fluorescence of single cells or particles in a stream.)

Data set [3] deals with H1299_eGFP cells. Description: Side scatter (cellular granularity) by flow cytometry. As to the method:
For silencing experiments, H1299_eGFP cells were seeded in 24 well plates at a density of 35000 cells/well and were allowed to settle overnight. Subsequently, the cells were transfected and treated with small molecular adjuvants as described previously. Note that for every siEGFP or siPLK1 condition an siCTRL sample was included to account for potential off target effects. SiNG-mediated eGFP silencing was determined by flow cytometry. […] The cells were collected, centrifuged during 5 minutes at 300 g, resuspended in 300 μL flow buffer and kept on ice until analysis. For each sample the forward and side scatter as well as the green fluorescent signal were measured for at least 5000 cells.

For data set [4], the system named is H1299_WT cells. Description: Phospholipidosis detection with LipidTOX Red. Particulars: 20 h incubation. As to the method:
H1299_WT cells were seeded and allowed to settle overnight as detailed previously. Next, the cells were incubated with a mixture of a 1/1000 dilution of the LipidTOX™ red phospholipidosis detection reagent (Thermo Fisher Scientific, USA) and the desired CAD in complete cell medium. Upon 20 hour incubation, the cells were fixed with 4% PFA and stored at 4° C. covered in Vectashield antifade mounting medium containing DAPI. Imaging occurred with a LSCM and a 100× oil immersion objective. DAPI and the LipidTOX™ red phospholipidosis dye were respectively excited with the 408 nm and 561 nm laser lines and the signal intensity was determined with Image J in minimum 30 cells from 5 images per condition.

[5] abbreviates: relative to the first four CADs.

Counter-ions that a name gives are not always drawn. Bounds are passed on as bounds.

Turning to `OCc1cc(C(O)CNCCCCCCOCCCCc2ccccc2)ccc1O` (stereo not shown) [(18) Salmeterol, Salmeterol], the “concentration with significant additional cytotoxicity compared to siNGs alone” value in data set [1] was ≥ 20 µM. In data set [2], the “adjuvant effect on siNG-mediated eGFP silencing” value (“adjuvant effect” for short) is given as “significant additional silencing” and the “cellular siRNA delivery promoting effect” value is reported as “significantly improve cellular siRNA delivery”.

Regarding `COc1ccccc1OCCNCC(O)COc1cccc2[nH]c3ccccc3c12` (stereo not shown) [(26) Carvedilol, Carvedilol], in data set [1] (40 μM sequential to siNG), the “cytotoxicity versus sum of separate components” value is given as “exceed the sum of the effects from each separate component”. Also, the “cytotoxicity ranking, CAD treatment alone” value in data set [1] (10-40 μM, no siNG) is listed as “most cytotoxic”. In addition, the “adjuvant effect” value in data set [2] was “significant additional silencing”.

In the case of `CNCCC=C1c2ccccc2CCc2ccccc21.Cl` [(55) Nortriptyline hydrochloride, Nortriptyline hydrochloride], in data set [1], the “concentration with significant additional cytotoxicity compared to siNGs alone” value turned out to be 40 µM. For the same compound, the “adjuvant effect” value in data set [2] was “significant additional silencing”.

Regarding `CC(C)(C)c1ccc(C(O)CCCN2CCC(C(O)(c3ccccc3)c3ccccc3)CC2)cc1` (stereo not shown) [(56) Terfenadine, Terfenadine], the “effect on % eGFP expression compared to siNGs alone” value in data set [2] (1, 2, 3, 4 or 5 μM) is given as “significantly reduce eGFP expression”. For the same compound, the “concentration required for silencing effect” value in data set [2] (setting [5]) is on record as “substantially lower concentrations were required”.

On to `CCc1cc2c(cc1CC)CC(NCC(O)c1ccc(O)c3[nH]c(=O)ccc13)C2` (stereo not shown) [(57) Indacaterol maleate, Indacaterol maleate], for which the “cellular siRNA delivery promoting effect” value in data set [2] was “significantly improve cellular siRNA delivery”.

As to `CCN(CC)CCCC(C)Nc1ccnc2cc(Cl)ccc12` (stereo not shown) [Chloroquine, chloroquine], the “adjuvant effect” value in data set [2] is on record as “enhances gene silencing to a similar extent as the initial molecules tested”; in data set [2] (listed as CLQ), “improves the silencing potential of the siNGs to a similar extent”.

`CCCCCCCC/C=C\CCCCCCC(O)C(=O)O` (stereo not shown) [Compound 2-OHOA, 2-hydroxy oleic acid]: the “effect on gene silencing in combination” value in data set [2] (300 μM 2OHOA combined with 10 μM DL) is recorded as “additive effect”.

As for `CCN(CC)CCO[C@H]1CC[C@@]2(C)C(=CC[C@@H]3[C@@H]2CC[C@]2(C)C(=O)CC[C@@H]32)C1` [Compound U18666A, U18666A], the “increase in SSC signal” value in data set [3] (siNG transfection then 30 μM) amounted to 2 fold. The “effect on siNG-mediated gene silencing” value in data set [2] (30 μM) is on record as “clearly improved siNG-mediated gene silencing”.

With `Br.COc1ccc2c(c1)[C@]13CCCC[C@@H]1[C@H](C2)N(C)CC3` [Dextromethorphan hydrobromide, monohydrate], in data set [3] (after siNG transfection), the “concentration significantly augmenting the SSC signal” value was > 80 µM. The “LipidTOX Red phospholipid signal” value in data set [4] is recorded as “only higher doses”. In data set [2] (setting [5]), the “higher concentration required to obtain similar silencing effects” value turned out to be 10 fold. Besides, in data set [2], the “adjuvant effect” value is given as “does not influence gene silencing”.

Consider `COc1ccc(CC(C)NCC(O)c2ccc(O)c(NC=O)c2)cc1` (stereo not shown) [formoterol, formoterol fumarate hemisulfate], for which, in data set [2], the “cellular siRNA delivery promoting effect” value is “do not qualify as siRNA delivery enhancers”.

On to salbutamol hemisulfate, for which the “cellular siRNA delivery promoting effect” value in data set [2] is recorded as “do not qualify as siRNA delivery enhancers”.

The values are drawn from US11033572B2, “Molecular adjuvants for enhanced cytosolic delivery of active agents” (Universiteit Gent, priority 2017, dated 2021).
